These results are taken from US12370161B2, “Composition for treating atopy or pruritus comprising N-acetyl or N-acyl amino acid” (STEMDR INC., priority 2017, dated 2025).

This test deals with atopic dermatitis-induced Nc/Nga mouse. Put plainly: SCORAD clinical skin score, DNFB-induced atopic dermatitis in Nc/Nga mouse. The test is classed as in vivo. Further details: key to Mouse 1 Erythema / Mouse 2 Eschar / Mouse 2 Dryness / Mouse 2 Abrasion / Mouse 1 Edema / Mouse 1 Eschar / Mouse 1 Dryness / Mouse 1 Abrasion / Mouse 2 Erythema / Mouse 2 Edema / Mouse 3 Erythema / Mouse 3 Edema / Mouse 3 Eschar / Mouse 3 Dryness / Mouse 3 Abrasion: 0 = no symptom, 1 = mild, 2 = moderate, 3 = severe; key to Mouse 1 Sum / Mean (of Sum, SCORAD) / Mouse 3 Sum: sum of individual symptom scores, each graded 0-3. The conditions noted are these: for Mouse 1 Erythema: DNFB Nc/Nga (FIG. 8), 0.1% in PBS, 200 μL on back skin daily day 15-21; for Mouse 1 Erythema / Mouse 1 Abrasion / Mouse 1 Dryness / Mouse 1 Edema / Mouse 1 Eschar / Mouse 1 Lichenification / Mouse 2 Abrasion / Mouse 2 Dryness / Mouse 2 Edema / Mouse 2 Erythema / Mouse 2 Eschar / Mouse 2 Lichenification / Mouse 3 Abrasion / Mouse 3 Dryness / Mouse 3 Edema / Mouse 3 Erythema / Mouse 3 Eschar / Mouse 3 Lichenification: graded per Example 4; for Mouse 1 Abrasion / Mouse 1 Dryness / Mouse 1 Edema / Mouse 1 Eschar / Mouse 1 Lichenification / Mouse 1 Sum / Mouse 2 Abrasion / Mouse 2 Dryness / Mouse 2 Edema / Mouse 2 Erythema / Mouse 2 Eschar / Mouse 2 Lichenification / Mouse 2 Sum / Mouse 3 Abrasion / Mouse 3 Dryness / Mouse 3 Edema / Mouse 3 Erythema / Mouse 3 Eschar / Mouse 3 Lichenification / Mouse 3 Sum / Mean (of Sum, SCORAD): DNFB Nc/Nga, 0.1% topical day 15-21; for Mouse 1 Sum / Mouse 2 Sum / Mouse 3 Sum: sum of individual scores; for Mean (of Sum, SCORAD): mean of 3 mice. How it is done: In order to establish a model more similar to an atopy model than that of the Balb/c mice, atopy was induced in Nc/Nga mouse mice. Specifically, after inducing DNFB sensitization by applying 100 μL of 0.35% 2,4-dinitrofluorobenzene (DNFB) in acetone/olive oil (3:1) on the shaved back skin, dermatitis was induced by applying 100 μL of 0.15% DNFB for 4-20 days, every other day. Control mice were treated with a vehicle of the same volume (FIG. 1B).
After dissolving an N-acetyl or N-acylamino acid in phosphate-buffered saline to 0.1%, 200 μL of the solution was applied on the back skin of the mice every day, from day 22 until day 28 for the Balb/c atopic dermatitis model, and from day 15 until day 21 for the Nc/Nga atopic dermatitis model. When the N-acetyl or N-acylamino acid was treated together with DNFB, they were treated with 12-hour intervals in order to avoid direct reaction between the DNFB and the N-acetyl or N-acylamino acid. A non-treated group and a 2,4-dinitrofluorobenzene (DNFB) group were treated with phosphate-buffered saline of the same volume (FIGS. 1A-1B). As the N-acetylamino acid, products purchased from Sigma-Aldrich (USA), MP scientific (USA), TCI (Tokyo Chemical Industry, Japan), Santacruz (USA), etc. were used without purification.
The degree of skin soothing and the severity of atopic dermatitis were evaluated macroscopically according to the previously established SCORAD (SCORing Atopic Dermatitis) method (Oranje et al., 2007). The degree of symptoms such as edema, erythema, eschar, dryness, abrasion, lichenification, etc. was graded from 0 to 3 (0, no symptom; 1, mild; 2, moderate; 3, severe). The overall dermatitis score was determined from the sum of all individual scores (Table 1). The assessment was performed by an investigator who was blind to the grouping of the mice.
Skin-soothing effect and the severity of dermatitis were evaluated for the acyl derivatives of tryptophan synthesized in Example 9, the acyl derivative of alanine synthesized in Example 10 and N-palmitoylalanine (purchased from Santacruz (USA)) according to the method of Example 4 (Table 2)

With `CCCCCCCCCCCCCCCC(=O)N[C@@H](C)C(=O)O` [N-palmitoyl L-alanine, N-palmitoyl-L-alanine], the “Mouse 1 Erythema” value is 1, the “Mouse 1 Abrasion” value was 1, the “Mouse 1 Dryness” value worked out at 1 and the “Mouse 1 Edema” value is on record as 2. Besides, the “Mouse 1 Eschar” value stood at 1, the “Mouse 1 Lichenification” value worked out at 1, the “Mouse 1 Sum” value came out at 7 and the “Mouse 2 Abrasion” value was found to be 1. Besides, the “Mouse 2 Dryness” value is 1, the “Mouse 2 Edema” value amounted to 1, the “Mouse 2 Erythema” value came out at 2 and the “Mouse 2 Eschar” value is 1. For the same compound, the “Mouse 2 Lichenification” value is given as 1, the “Mouse 2 Sum” value is 7, the “Mouse 3 Abrasion” value was 2 and the “Mouse 3 Dryness” value is 2. Further, the “Mouse 3 Edema” value is on record as 1, the “Mouse 3 Erythema” value is listed as 2, the “Mouse 3 Eschar” value came out at 1 and the “Mouse 3 Lichenification” value turned out to be 1. Moreover, the “Mouse 3 Sum” value worked out at 9 and the “Mean (of Sum, SCORAD)” value turned out to be 6.7.

For the compound `CC(=O)N[C@@H](Cc1c[nH]c2ccccc12)C(=O)O` [D-form N-acetyltryptophan, N-acetyltryptophan, reference compound], the “dermatitis-treating effect of L-, L/D- and D-form (FIG. 6)” value (Nc/Nga atopic dermatitis model, 0.1%) is on record as “no effect”.

As to `CC(=O)N[C@@H](CCC(=O)N[C@@H](C)C(=O)O)C(=O)O` [N-acetyly-glutammyl-L-alanine, N-acetyl-γ-glutammyl-L-alanine], the “Mouse 1 Erythema” value was 0, the “Mouse 1 Abrasion” value was 1, the “Mouse 1 Dryness” value is 0 and the “Mouse 1 Edema” value was determined as 1. Further, the “Mouse 1 Eschar” value is reported as 0, the “Mouse 1 Lichenification” value was found to be 2, the “Mouse 1 Sum” value was 4 and the “Mouse 2 Abrasion” value was 1. Besides, the “Mouse 2 Dryness” value is given as 1, the “Mouse 2 Edema” value came out at 1, the “Mouse 2 Erythema” value was 1 and the “Mouse 2 Eschar” value is 2. Besides, the “Mouse 2 Lichenification” value stood at 2, the “Mouse 2 Sum” value was determined as 8, the “Mouse 3 Abrasion” value stood at 1 and the “Mouse 3 Dryness” value stood at 0. Moreover, the “Mouse 3 Edema” value was 1, the “Mouse 3 Erythema” value is 1, the “Mouse 3 Eschar” value turned out to be 1 and the “Mouse 3 Lichenification” value is listed as 2. The “Mouse 3 Sum” value was found to be 6 and the “Mean (of Sum, SCORAD)” value is 6.

`CCCCCCCCCCC(=O)N[C@@H](Cc1c[nH]c2ccccc12)C(=O)O` [N-undecanoyl L-tryptophan, N-undecanoyl-L-tryptophan]: the “Mouse 1 Erythema” value is reported as 1, the “Mouse 1 Abrasion” value was determined as 2, the “Mouse 1 Dryness” value amounted to 1 and the “Mouse 1 Edema” value is on record as 2. For the same compound, the “Mouse 1 Eschar” value came to 1, the “Mouse 1 Lichenification” value came to 2, the “Mouse 1 Sum” value was 9 and the “Mouse 2 Abrasion” value came to 2. The “Mouse 2 Dryness” value stood at 1, the “Mouse 2 Edema” value was 1, the “Mouse 2 Erythema” value came out at 2 and the “Mouse 2 Eschar” value amounted to 2. Also, the “Mouse 2 Lichenification” value was 2, the “Mouse 2 Sum” value is recorded as 10, the “Mouse 3 Abrasion” value was found to be 1 and the “Mouse 3 Dryness” value is on record as 1. Further, the “Mouse 3 Edema” value is on record as 2, the “Mouse 3 Erythema” value is on record as 1, the “Mouse 3 Eschar” value is recorded as 2 and the “Mouse 3 Lichenification” value was found to be 2. The “Mouse 3 Sum” value is listed as 9 and the “Mean (of Sum, SCORAD)” value is given as 9.3.

Take `CCCC(=O)N[C@@H](Cc1c[nH]c2ccccc12)C(=O)O` [N-butyryl L-tryptophan, N-butyryl-L-tryptophan]: the “Mouse 1 Erythema” value is on record as 1, the “Mouse 1 Abrasion” value was found to be 1, the “Mouse 1 Dryness” value is listed as 2 and the “Mouse 1 Edema” value was 2. In addition, the “Mouse 1 Eschar” value is on record as 2, the “Mouse 1 Lichenification” value worked out at 2, the “Mouse 1 Sum” value is given as 10 and the “Mouse 2 Abrasion” value is 2. In addition, the “Mouse 2 Dryness” value stood at 2, the “Mouse 2 Edema” value is on record as 1, the “Mouse 2 Erythema” value came to 2 and the “Mouse 2 Eschar” value came to 1. For the same compound, the “Mouse 2 Lichenification” value was 2, the “Mouse 2 Sum” value is listed as 10, the “Mouse 3 Abrasion” value was 1 and the “Mouse 3 Dryness” value is reported as 1. In addition, the “Mouse 3 Edema” value was determined as 1, the “Mouse 3 Erythema” value worked out at 1, the “Mouse 3 Eschar” value is given as 1 and the “Mouse 3 Lichenification” value was 2. Moreover, the “Mouse 3 Sum” value is 6 and the “Mean (of Sum, SCORAD)” value is given as 8.7.

For `CCCCCCCC/C=C\CCCCCCCC(=O)N[C@@H](Cc1c[nH]c2ccccc12)C(=O)O` [N-oleoyl-L-tryptophan], the “Mouse 1 Erythema” value worked out at 2, the “Mouse 1 Abrasion” value was found to be 2, the “Mouse 1 Dryness” value worked out at 2 and the “Mouse 1 Edema” value is given as 1. The “Mouse 1 Eschar” value is reported as 2, the “Mouse 1 Lichenification” value was determined as 3, the “Mouse 1 Sum” value is recorded as 12 and the “Mouse 2 Abrasion” value was found to be 2. The “Mouse 2 Dryness” value stood at 2, the “Mouse 2 Edema” value came to 1, the “Mouse 2 Erythema” value came to 1 and the “Mouse 2 Eschar” value was 1. Besides, the “Mouse 2 Lichenification” value is listed as 3, the “Mouse 2 Sum” value was determined as 10, the “Mouse 3 Abrasion” value turned out to be 2 and the “Mouse 3 Dryness” value was 2. The “Mouse 3 Edema” value came out at 1, the “Mouse 3 Erythema” value is 2, the “Mouse 3 Eschar” value is reported as 1 and the “Mouse 3 Lichenification” value is 2. In addition, the “Mouse 3 Sum” value came out at 10 and the “Mean (of Sum, SCORAD)” value is on record as 10.7.

For `CCC(=O)N[C@@H](Cc1c[nH]c2ccccc12)C(=O)O` [N-propionyl L-tryptophan, N-propionyl-L-tryptophan], the “Mouse 1 Erythema” value is reported as 2, the “Mouse 1 Abrasion” value amounted to 2, the “Mouse 1 Dryness” value is 2 and the “Mouse 1 Edema” value worked out at 2. The “Mouse 1 Eschar” value worked out at 2, the “Mouse 1 Lichenification” value stood at 2, the “Mouse 1 Sum” value is given as 12 and the “Mouse 2 Abrasion” value was found to be 2. The “Mouse 2 Dryness” value is on record as 3, the “Mouse 2 Edema” value was 2, the “Mouse 2 Erythema” value was found to be 2 and the “Mouse 2 Eschar” value amounted to 2. Also, the “Mouse 2 Lichenification” value turned out to be 2, the “Mouse 2 Sum” value worked out at 13, the “Mouse 3 Abrasion” value is on record as 2 and the “Mouse 3 Dryness” value was determined as 1. The “Mouse 3 Edema” value is 1, the “Mouse 3 Erythema” value amounted to 2, the “Mouse 3 Eschar” value is given as 2 and the “Mouse 3 Lichenification” value was determined as 1. In addition, the “Mouse 3 Sum” value is given as 9 and the “Mean (of Sum, SCORAD)” value worked out at 11.3.

With `CCCCCCCCCCCCCCCC(=O)N[C@@H](Cc1c[nH]c2ccccc12)C(=O)O` [N-palmitoyl-L-tryptophan], the “Mouse 1 Erythema” value was found to be 1, the “Mouse 1 Abrasion” value was 1, the “Mouse 1 Dryness” value is reported as 1 and the “Mouse 1 Edema” value came to 2. Besides, the “Mouse 1 Eschar” value was 1, the “Mouse 1 Lichenification” value is reported as 2, the “Mouse 1 Sum” value stood at 6 and the “Mouse 2 Abrasion” value worked out at 2. Also, the “Mouse 2 Dryness” value was 2, the “Mouse 2 Edema” value is 1, the “Mouse 2 Erythema” value came out at 2 and the “Mouse 2 Eschar” value turned out to be 2. Further, the “Mouse 2 Lichenification” value is 1, the “Mouse 2 Sum” value is 10, the “Mouse 3 Abrasion” value was 1 and the “Mouse 3 Dryness” value is 2. In addition, the “Mouse 3 Edema” value amounted to 2, the “Mouse 3 Erythema” value came out at 2, the “Mouse 3 Eschar” value worked out at 1 and the “Mouse 3 Lichenification” value was found to be 2. The “Mouse 3 Sum” value is listed as 10 and the “Mean (of Sum, SCORAD)” value amounted to 8.7.
